According to patent publication US9464084B2, “P2X7 modulators” (Janssen Pharmaceutica NV, priority 2013, dated 2016):

Columns and labels:
P2X7 [1] = molecular target: T1, P2X7 (Homo sapiens (Human), UniProt Q99572); assay: Radioligand binding, tritiated A-804598, human P2X7-1321N1 cell membranes; conditions: 1 hour at 4° C.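 Note: ki obtained from the binding IC50 after correction for tracer concentration and tracer affinity.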
Protocol: On the day of the experiment, cell membrane preparations were made according to standard published methods. […] The assay was terminated by filtration (GF/B filters pre-soaked with 0.3% PEI) and washed with washing buffer (Tris-HCl 50 mM). The IC50 generated in the binding assay was corrected for tracer concentration and affinity of the tracer to derive at the affinity (Ki) of the test compounds.

P2X7 [2] = molecular target: T1, P2X7; assay: Ca2+ flux (FLIPR) in 1321N1 cells expressing recombinant human P2X7 channel; assay type: cell-based; conditions: 250 μM BzATP;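 note: Calcium-4 dye-loaded cells exposed to compound for 30 min before agonist addition, fluorescence change read 180 s after agonist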
rat P2X7 = rat P2X7 (Rattus norvegicus (Rat), UniProt Q64663); assay: Ca2+ flux (FLIPR) in 1321N1 cells expressing recombinant rat P2X7 channel; assay type: cell-based; conditions: 250 μM BzATP;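 note: Calcium-4 dye fluorescence change read 180 s after agonist addition, following 30 min cell preincubation with test compound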
P2X7 [3] = molecular target: T1, P2X7; assay: P2X7 antagonism in human PBMCs (LPS + Bz-ATP induced IL-1β release, ELISA); assay type: cell-based; conditions: LPS 30 ng/ml, Bz-ATP 0.5 mM; for PBMC 10 μM (% control): compound 10 μM;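 for all read-outs here: PBMCs from donor human blood, with a further 1.5 h incubation of the cells in the assay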

Sequence of rat P2X7 (Q64663 whole entry): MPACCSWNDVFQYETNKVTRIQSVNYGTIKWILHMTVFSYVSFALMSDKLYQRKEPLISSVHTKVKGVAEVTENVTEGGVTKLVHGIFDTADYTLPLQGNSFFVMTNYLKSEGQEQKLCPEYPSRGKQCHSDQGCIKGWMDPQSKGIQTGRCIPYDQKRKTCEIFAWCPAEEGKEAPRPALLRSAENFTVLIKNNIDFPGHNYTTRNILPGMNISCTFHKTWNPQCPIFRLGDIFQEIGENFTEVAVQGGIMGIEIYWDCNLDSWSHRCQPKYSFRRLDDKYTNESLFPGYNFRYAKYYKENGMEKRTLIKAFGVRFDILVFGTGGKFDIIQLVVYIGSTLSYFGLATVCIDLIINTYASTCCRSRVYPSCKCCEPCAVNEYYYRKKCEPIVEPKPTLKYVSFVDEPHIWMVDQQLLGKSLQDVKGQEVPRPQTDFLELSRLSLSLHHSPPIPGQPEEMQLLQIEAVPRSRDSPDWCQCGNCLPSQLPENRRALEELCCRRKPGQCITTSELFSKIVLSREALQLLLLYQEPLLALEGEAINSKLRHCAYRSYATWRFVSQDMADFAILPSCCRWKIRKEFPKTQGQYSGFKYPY
T1 sequence (Q99572 whole entry): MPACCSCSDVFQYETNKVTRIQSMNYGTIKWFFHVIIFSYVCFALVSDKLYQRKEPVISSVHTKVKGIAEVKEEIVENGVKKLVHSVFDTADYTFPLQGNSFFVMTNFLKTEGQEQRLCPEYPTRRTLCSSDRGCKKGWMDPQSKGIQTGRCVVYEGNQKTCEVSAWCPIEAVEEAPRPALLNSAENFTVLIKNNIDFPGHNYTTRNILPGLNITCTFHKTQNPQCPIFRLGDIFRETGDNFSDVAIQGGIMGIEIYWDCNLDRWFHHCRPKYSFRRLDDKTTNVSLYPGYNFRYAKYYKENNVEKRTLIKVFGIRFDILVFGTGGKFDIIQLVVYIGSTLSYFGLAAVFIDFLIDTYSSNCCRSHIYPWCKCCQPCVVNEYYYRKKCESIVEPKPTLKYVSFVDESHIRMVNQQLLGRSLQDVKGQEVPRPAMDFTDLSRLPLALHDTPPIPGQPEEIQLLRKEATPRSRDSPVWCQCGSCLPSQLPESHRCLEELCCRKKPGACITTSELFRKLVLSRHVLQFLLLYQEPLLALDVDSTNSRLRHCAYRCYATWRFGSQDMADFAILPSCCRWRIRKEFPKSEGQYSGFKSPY

SMILES	Ki (P2X7 [1]) [nM]	IC50 (P2X7 [2]) [nM]	IC50 (rat P2X7) [nM]	PBMC 10 μM (% control) (P2X7 [3])	PBMC 1 μM (% control) (P2X7 [3]; compound 1 μM)
Cn1nc2c(c1-c1cncnc1)CCN(C(=O)c1cccc(C(F)(F)F)c1Cl)C2 [Example 113, 6-{[2-Chloro-3-(trifluoromethyl)phenyl]carbonyl}-2-methyl-3-pyrimidin-5-yl-4,5,6,7-tetrahydro-2H-pyrazolo[3,4-c]pyridine]	398	855	> 10000	42.6	–
CC1Cc2c(nnn2-c2ccccn2)CN1C(=O)c1ccc(F)c(Cl)c1Cl (stereo not drawn) [Example 121, 5-[(2,3-Dichloro-4-fluorophenyl)carbonyl]-6-methyl-1-pyridin-2-yl-4,5,6,7-tetrahydro-1H-[1,2,3]triazolo[4,5-c]pyridine]	11.2	3.2	6.5	−0.2	–
O=C(c1cccc(C(F)(F)F)c1F)N1CCc2c(nnn2-c2ccccn2)C1 [Example 123, (2-Fluoro-3-(trifluoromethyl)phenyl)(1-(pyridin-2-yl)-6,7-dihydro-1H-[1,2,3]triazolo[4,5-c]pyridin-5(4H)-yl)methanone]	63.1	50.1	1000	–	22.0
Cn1ccc(-n2nnc3c2CCN(C(=O)c2cccc(C(F)(F)F)c2Cl)C3)n1 [Example 127, (2-Chloro-3-(trifluoromethyl)phenyl)(1-(1-methyl-1H-pyrazol-3-yl)-6,7-dihydro-1H-[1,2,3]triazolo[4,5-c]pyridin-5(4H)-yl)methanone]	39.8	22.1	89.1	9.2	–
Cc1c(C(=O)N2CCc3c(nnn3-c3ccccn3)C2)ccc(F)c1F [Example 132, (3,4-Difluoro-2-methylphenyl)(1-(pyridin-2-yl)-6,7-dihydro-1H-[1,2,3]triazolo-[4,5-c]pyridin-5(4H)-yl)methanone]	50.1	78.3	4430	3.8	–
CC1c2nnn(-c3ncc(F)cn3)c2CCN1C(=O)c1cccc(Cl)c1Cl (stereo not drawn) [Example 174, (2,3-Dichlorophenyl)(1-(5-fluoropyrimidin-2-yl)-4-methyl-6,7-dihydro-1H-[1,2,3]triazolo[4,5-c]pyridin-5(4H)-yl)methanone]	50.1	3.3	1680	4.2	–
CC1Cc2c(nnn2-c2cc[nH]n2)CN1C(=O)c1cccc(C(F)(F)F)c1F (stereo not drawn) [Example 189, (2-fluoro-3-(trifluoromethyl)phenyl)(6-methyl-1-(1H-pyrazol-3-yl)-6,7-dihydro-1H-[1,2,3]triazolo[4,5-c]pyridin-5(4H)-yl)methanone]	13.5	3.9	6.3	0.5	–
Cc1ccnc(-n2nnc3c2CCN(C(=O)c2cccc(Cl)c2Cl)C3C)n1 (stereo not drawn) [Example 225, (2,3-dichlorophenyl)(4-methyl-1-(4-methylpyrimidin-2-yl)-6,7-dihydro-1H-[1,2,3]triazolo[4,5-c]pyridin-5(4H)-yl)methanone]	9.1	6.2	42.3	−1.0	–
CC1Cc2c(nnn2-c2ccc(F)cc2)C(C)N1C(=O)c1cccc(Cl)c1Cl (stereo not drawn) [Example 242, (2,3-Dichlorophenyl)(1-(4-fluorophenyl)-4,6-dimethyl-6,7-dihydro-1H-[1,2,3]triazolo[4,5-c]pyridin-5(4H)-yl)methanone]	25.1	81.5	60.4	−3.4	–
CC1CN(C(=O)c2cccc(C(F)(F)F)c2Cl)Cc2nnn(-c3ccccc3)c21 (stereo not drawn) [Example 245, (2-Chloro-3-(trifluoromethyl)phenyl)(7-methyl-1-phenyl-6,7-dihydro-1H-[1,2,3]triazolo[4,5-c]pyridin-5(4H)-yl)methanone]	100	161	2070	−7.3	–
CC1CN(C(=O)c2cccc(C(F)(F)F)c2Cl)Cc2nnn(-c3ccc(F)cc3)c21 (stereo not drawn) [Example 246, (2-Chloro-3-(trifluoromethyl)phenyl)(1-(4-fluorophenyl)-7-methyl-6,7-dihydro-1H-[1,2,3]triazolo[4,5-c]pyridin-5(4H)-yl)methanone]	174	230	6530	−3.1	–
Cc1cncc(-n2nnc3c2CCN(C(=O)c2cccc(C(F)(F)F)c2Cl)C3C)n1 (stereo not drawn) [Example 251, (2-Chloro-3-(trifluoromethyl)phenyl)(4-methyl-1-(6-methylpyrazin-2-yl)-6,7-dihydro-1H-[1,2,3]triazolo[4,5-c]pyridin-5(4H)-yl)methanone]	144	124	9110	11.6	–
Cc1ccnc(-n2nnc3c2CCN(C(=O)c2cccc(C(F)(F)F)c2Cl)C3C)n1 (stereo not drawn) [Example 252, (2-Chloro-3-(trifluoromethyl)phenyl)(4-methyl-1-(4-methylpyrimidin-2-yl)-6,7-dihydro-1H-[1,2,3]triazolo[4,5-c]pyridin-5(4H)-yl)methanone]	28.2	18.8	22.3	−0.8	–
COc1cccnc1-n1nnc2c1CCN(C(=O)c1cccc(C(F)(F)F)c1Cl)C2C (stereo not drawn) [Example 260, (2-Chloro-3-(trifluoromethyl)phenyl)(1-(3-methoxypyridin-2-yl)-4-methyl-6,7-dihydro-1H-[1,2,3]triazolo[4,5-c]pyridin-5(4H)-yl)methanone]	35.5	27	6930	1.4	–
CC1Cc2c(-c3ccnn3C)nn(C)c2CN1C(=O)c1cccc(C(F)(F)F)c1Cl (stereo not drawn) [Example 266, (2-chloro-3-(trifluoromethyl)phenyl)(1,5-dimethyl-3-(1-methyl-1H-pyrazol-5-yl)-4,5-dihydro-1H-pyrazolo[3,4-c]pyridin-6(7H)-yl)methanone]	20	12.7	12.6	5.8	–
CC1Cc2c(-c3ccn[nH]3)n[nH]c2CN1C(=O)c1cccc(C(F)(F)F)c1Cl (stereo not drawn) [Example 267, (2-chloro-3-(trifluoromethyl)phenyl)(5-methyl-3-(1H-pyrazol-5-yl)-4,5-dihydro-1H-pyrazolo[3,4-c]pyridin-6(7H)-yl)methanone]	10	8.1	9.5	−50.8	–
O=C(c1ccc(Cl)cc1F)N1CCc2c(nnn2-c2cnccn2)C1 [Example 272, (4-chloro-2-fluorophenyl)(1-(pyrazin-2-yl)-6,7-dihydro-1H-[1,2,3]triazolo[4,5-c]pyridin-5(4H)-yl)methanone]	100	622	3020	−7.6	–
CC1c2nnn(-c3cnccn3)c2CCN1C(=O)c1cccc(C(F)(F)F)c1F (stereo not drawn) [Example 273, (2-fluoro-3-(trifluoromethyl)phenyl)(4-methyl-1-(pyrazin-2-yl)-6,7-dihydro-1H-[1,2,3]triazolo[4,5-c]pyridin-5(4H)-yl)methanone]	18.2	7.6	83.2	−2.1	–
